Key:
HCT116 FOPFlash = test: Control reporter assay, HCT116 FOP control vector (non-functional TCF elements), luciferase expression; assay type: cell-based; conditions: Homo sapiens, HCT-116, 36 h, HCT116 FOP control reporter cells, 36 hours incubation, dilution series 50 μM to 15 nM
How it was run: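 Stable HCT116 cells carrying FOP vector (randomized non-functional TCF sites) plus pcDNA3, run in parallel with TOP line; compounds 50 μM to 15 nM (3.16-fold steps) added in CAFTY buffer pH 7.4 with 2 mM Ca2+, 0.01% BSA. Incubated 36 h at 37 °C, 5% CO2; luciferase luminescence read.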

[1] = system: constitutive active colorectal cancer cell (CRC) Wnt pathway, HCT116 TOPFlash; test: Cellular reporter assay, HCT116 Super TopFlash (constitutive active Wnt pathway), luciferase expression; assay type: cell-based; conditions: Homo sapiens, HCT-116, 36 h, HCT116 Super TopFlash reporter cells, 36 hours incubation, dilution series 50 μM to 15 nM
How it was run: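 HCT116 cells stably carrying Super TopFlash (β-catenin ΔS45, constitutive Wnt) run in parallel with FOP control line; compounds 50 μM to 15 nM (3.16-fold) in CAFTY buffer pH 7.4 with 2 mM Ca2+, 0.01% BSA, 36 h at 37 °C. Luciferase luminescence read as Wnt activity.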

Frizzled1 = conditions: according to WO 2011/035321 (A1); cited from earlier work
Dishevelled-2 protein = conditions: according to WO 2011/035321 (A1); cited from earlier work
[2] = system: Wnt3A-stimulated R-catenin stabilization; conditions: according to WO 2011/035321 (A1); cited from earlier work
[3] = system: LEF/TCF reporter activity; conditions: Wnt3A-stimulated; according to WO 2011/035321 (A1); cited from earlier work

With `O=C(CN1CCOCC1)Nc1cc(C(=O)Nc2nnc(-c3cncs3)s2)ccc1OC(F)(F)F` [Example 103, 3-[(morpholin-4-ylacetyl)amino)-N-[5-(1,3-thiazol-5-yl)-1,3,4-thiadiazol-2-yl]-4-(trifluoromethoxy)benzamide] as the compound, how does the IC50 (HCT116 FOPFlash) read?
Its IC50 is ≥ 50 µM.

What about the IC50 [1] of the same compound?
The IC50 was 12.2 µM.

Which results are given for `Nc1ncc(-c2nnc(NC(=O)c3ccc(OC(F)(F)F)c(NC(=O)CN4CCOCC4)c3)s2)s1` [Example 104, N-[5-(2-amino-1,3-thiazol-5-yl)-1,3,4-thiadiazol-2-yl]-3-[(morpholin-4-ylacetyl)amino]-4-(trifluoromethoxy)benzamide]?
IC50 (HCT116 FOPFlash): ≥ 50 µM; IC50 [1]: 17.9 µM

What does the source list for `Cc1scnc1-c1nnc(NC(=O)c2ccc(OC(F)(F)F)c(NC(=O)CN3CCOCC3)c2)s1` [Example 105, N-[5-(5-methyl-1,3-thiazol-4-yl)-1,3,4-thiadiazol-2-yl)-3-[(morpholin-4-ylacetyl)amino]-4-(trifluoromethoxy)benzamide]?
IC50 (HCT116 FOPFlash): ≥ 50 µM; IC50 [1]: ≥ 50 µM

What does the source list for `COc1ccc(C(=O)Nc2nnc(-c3cnccc3C)s2)cc1NC(=O)CN1CCOCC1` [Example 106, 4-methoxy-N-[5-(4-methylpyridin-3-yl)-1,3,4-thiadiazol-2-yl]-3-[(morpholin-4-ylacetyl)amino]benzamide]?
IC50 (HCT116 FOPFlash): ≥ 50 µM; IC50 [1]: ≥ 50 µM

What does the source list for `O=C(CN1CCOCC1)Nc1cc(C(=O)Nc2nnc(-c3cnccc3F)s2)ccc1OC(F)(F)F` [Example 107, N-[5-(4-fluoropyridin-3-yl)-1,3,4-thiadiazol-2-yl]-3-[(morpholin-4-ylacetyl)amino]-4-(trifluoromethoxy)benzamide]?
IC50 (HCT116 FOPFlash): ≥ 50 µM; IC50 [1]: ≥ 50 µM

What does the source list for `Cc1ncsc1-c1nnc(NC(=O)c2ccc(OC(F)(F)F)c(NC(=O)CN3CCOCC3)c2)s1` [Example 108, N-[5-(4-methyl-1,3-thiazol-5-yl)-1,3,4-thiadiazol-2-yl)-3-[(morpholin-4-ylacetyl)amino]-4-(trifluoromethoxy)benzamide]?
IC50 (HCT116 FOPFlash): ≥ 50 µM; IC50 [1]: ≥ 50 µM

With `CN1CCN(CC(=O)Nc2cc(C(=O)Nc3nnc(-c4cnccc4F)s3)ccc2OC(F)(F)F)CC1` [Example 109, N-[5-(4-fluoropyridin-3-yl)-1,3,4-thiadiazol-2-yl]-3-{[(4-methylpiperazin-1-yl)acetyl]amino}-4-(trifluoromethoxy}benzamide] as the compound, how does the IC50 (HCT116 FOPFlash) read?
The IC50 was ≥ 50 µM.

What about the IC50 [1] of the same compound?
Its IC50 is 32 µM.

For `O=C(CN1CCOCC1)Nc1cc(C(=O)Nc2nnc(-c3cnccc3C(F)(F)F)s2)ccc1OC(F)(F)F` [Example 110, 3-[(morpholin-4-ylacetyl)amino)-4-(trifluoromethoxy)-N-{5-[4 (trifluoromethyl)pyridin-3-yl)-1,3,4-thiadiazol-2-yl}benzamide], which IC50 (HCT116 FOPFlash) is on record?
The IC50 was ≥ 50 µM.

What about the IC50 [1] of the same compound?
Its IC50 is 33 µM.

With `Cc1ncsc1-c1nnc(NC(=O)c2ccc(OC(F)(F)F)c(NC(=O)CN3CCN(C)CC3)c2)s1` [Example 111, 3-{[(4-methylpiperazin-1-yl)acetyl]amino}-N-[5-(4-methyl-1,3-thiazol-5-yl)-1,3,4-thiadiazol-2-yl]-4-(trifluoromethoxy)benzamide] as the compound, how does the IC50 (HCT116 FOPFlash) read?
Its IC50 is ≥ 50 µM.

What about the IC50 [1] of the same compound?
The IC50 was ≥ 50 µM.

Which IC50 (HCT116 FOPFlash) does the source give for `CN1CCN(CC(=O)Nc2cc(C(=O)Nc3nnc(-c4cncnc4)s3)ccc2OC2CC2)CC1` [Example 112, 4-(cyclopropyloxy)-3-{[(4-methylpiperazin-1-yl)acetyl]amino}-N-[5-(pyrimidin-5-yl)-1,3,4-thiadiazol-2-yl]benzamide] here?
Its IC50 is ≥ 50 µM.

And the IC50 [1]?
Its IC50 is 0.33 µM.

Which results are given for `O=C(CN1CCOCC1)Nc1cc(C(=O)Nc2nnc(-c3cccnc3)s2)ccc1OC1COC1` [Example 113, 3-[(morpholin-4-ylacetyl)amino)-4-(oxetan-3 yloxy)-N-[5-(pyridin-3-yl)-1,3,4-thiadiazol-2-yl]benzamide]?
IC50 (HCT116 FOPFlash): ≥ 50 µM; IC50 [1]: 27 µM

Which IC50 (HCT116 FOPFlash) does the source give for `COCCCOc1ccc(C(=O)Nc2nnc(-c3cnccc3C)s2)cc1NC(=O)CN1CCN(C)CC1` [Example 114, 4-(3-methoxypropoxy)-3-{[(4-methylpiperazin-1-yl)acetyl)amino}-N-[5-(4-methylpyridin-3-yl)-1,3,4-thiadiazol-2-yl]benzamide] here?
The IC50 was ≥ 50 µM.

What about the IC50 [1] of the same compound?
The IC50 was 26.1 µM.

Which IC50 (HCT116 FOPFlash) does the source give for `Cc1ccncc1-c1nnc(NC(=O)c2ccc(OCC3COC3)c(NC(=O)CN3CCN(C)CC3)c2)s1` [Example 115, 3-{[(4-methylpiperazin-1-yl)acetyl]amino}-N-[5-(4-methylpyridin-3-yl)-1,3,4-thiadiazol-2-yl]-4-(oxetan-3-ylmethoxy)benzamide] here?
The IC50 was ≥ 50 µM.

What about the IC50 [1] of the same compound?
Its IC50 is ≥ 50 µM.

What does the source list for `O=C(CN1CCOCC1)Nc1cc(C(=O)Nc2nnc(-c3ccncc3)s2)ccc1OC1CC1` [Example 116, 4-(cyclopropyloxy)-3-[(morpholin-4-ylacetyl)amino]-N-[5-(pyridin-4-yl)-1,3,4-thiadiazol-2-yl]benzamide]?
IC50 (HCT116 FOPFlash): ≥ 50 µM; IC50 [1]: ≥ 50 µM

For `O=C(CN1CCOCC1)Nc1cc(C(=O)Nc2nnc(-c3cnccn3)s2)ccc1OC1CC1` [Example 117, 4-(cyclopropyloxy)-3-[(morpholin-4-ylacetyl)amino]-N-[5-(pyrazin-2-yl)-1,3,4-thiadiazol-2-yl]benzamide], which IC50 (HCT116 FOPFlash) is on record?
Its IC50 is ≥ 50 µM.

And the IC50 [1]?
The IC50 was ≥ 50 µM.

What does the source list for `O=C(CN1CCOCC1)Nc1cc(C(=O)Nc2ccc(-c3cccnc3)cn2)ccc1OC1CC1` [Example 118, N-(3,3′-bipyridin-6-yl)-4-(cyclopropyloxy)-3-[(morpholin-4-ylacetyl)amino]benzamide]?
IC50 (HCT116 FOPFlash): ≥ 50 µM; IC50 [1]: ≥ 50 µM

Which results are given for `Nc1ccc(-c2nnc(NC(=O)c3ccc(OC4CC4)c(NC(=O)CN4CCOCC4)c3)s2)cn1` [Example 119, N-[5-(6-aminopyridin-3-yl)-1,3,4-thiadiazol-2-yl]-4-(cyclopropyloxy)-3-[(morpholin-4-ylacetyl)amino]benzamide]?
IC50 (HCT116 FOPFlash): ≥ 50 µM; IC50 [1]: ≥ 50 µM

Which results are given for `O=C(Nc1ccc([N+](=O)[O-])cc1Cl)c1cc(Cl)ccc1O` [niclosamide]?
Frizzled1 internalization (endocytosis) (Frizzled1): promotes Frizzled1 internalization (endocytosis); Dishevelled-2 protein regulation (Dishevelled-2 protein): down regulates Dishevelled-2 protein; Wnt3A-stimulated R-catenin stabilization [2]: inhibits; LEF/TCF reporter activity [3]: inhibits

— patent publication US20170107212A1, “NOVEL COMPOUNDS” (Bayer Pharma Aktiengesellschaft, priority 2014, published 2017)
